Where two headings read alike, the source gives them in different places.
Molecular target: T1, Human recombinant DHX9 protein (Homo sapiens, UniProt Q08211)
T1 construct: purchased Viva
Assay: DHX9 ATPase assay (ADP-Glo biochemical assay)
Details: for DHX9 Biochemical Max Inhibition: maximum inhibition in ATPase assay, 10 μM Aurintricarboxylic acid = 100%

[1] = read-out: DHX9 Biochemical Inflection Point

T1 sequence (Q08211 whole entry): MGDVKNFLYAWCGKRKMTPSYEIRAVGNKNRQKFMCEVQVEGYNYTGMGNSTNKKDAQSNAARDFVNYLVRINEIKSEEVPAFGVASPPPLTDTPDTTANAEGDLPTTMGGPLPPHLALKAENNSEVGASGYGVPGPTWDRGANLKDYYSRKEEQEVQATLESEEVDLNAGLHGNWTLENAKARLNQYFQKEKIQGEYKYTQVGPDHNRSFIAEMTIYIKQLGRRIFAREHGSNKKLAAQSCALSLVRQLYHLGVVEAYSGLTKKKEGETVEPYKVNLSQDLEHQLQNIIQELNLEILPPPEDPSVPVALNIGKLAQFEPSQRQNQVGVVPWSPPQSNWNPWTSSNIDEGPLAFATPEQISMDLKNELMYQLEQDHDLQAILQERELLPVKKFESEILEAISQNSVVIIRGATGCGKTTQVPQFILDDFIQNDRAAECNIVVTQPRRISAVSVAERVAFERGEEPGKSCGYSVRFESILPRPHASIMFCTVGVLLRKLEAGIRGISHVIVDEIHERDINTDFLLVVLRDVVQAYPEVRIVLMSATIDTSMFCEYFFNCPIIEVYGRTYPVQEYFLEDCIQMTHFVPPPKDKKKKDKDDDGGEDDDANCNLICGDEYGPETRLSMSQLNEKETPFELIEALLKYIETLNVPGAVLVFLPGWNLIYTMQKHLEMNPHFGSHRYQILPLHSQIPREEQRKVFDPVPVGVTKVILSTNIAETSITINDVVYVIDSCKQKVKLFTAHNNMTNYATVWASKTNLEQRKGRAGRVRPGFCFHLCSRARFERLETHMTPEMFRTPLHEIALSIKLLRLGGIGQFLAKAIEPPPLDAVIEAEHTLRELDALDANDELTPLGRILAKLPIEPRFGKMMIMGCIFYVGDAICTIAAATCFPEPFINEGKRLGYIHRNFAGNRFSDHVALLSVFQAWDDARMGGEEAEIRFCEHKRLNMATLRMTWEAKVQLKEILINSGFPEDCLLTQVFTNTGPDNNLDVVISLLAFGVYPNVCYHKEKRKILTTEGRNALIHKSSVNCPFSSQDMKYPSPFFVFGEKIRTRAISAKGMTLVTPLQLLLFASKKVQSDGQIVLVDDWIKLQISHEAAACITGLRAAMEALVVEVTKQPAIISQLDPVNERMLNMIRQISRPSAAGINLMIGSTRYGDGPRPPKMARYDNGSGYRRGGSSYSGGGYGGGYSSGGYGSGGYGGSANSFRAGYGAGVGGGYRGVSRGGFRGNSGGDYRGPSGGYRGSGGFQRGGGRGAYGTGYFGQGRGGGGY

| SMILES | DHX9 Biochemical Max Inhibition [%] | IC50 [1] [nM] | IC50 [nM] |
| --- | --- | --- | --- |
| Cc1cc(C(=O)Nc2cccc(NS(C)(=O)=O)c2)c(C)n1C1CC1 [Example 25] | 67.1 | 2320 |  |
| COc1ccc(C)c(-c2csc(C(=O)Nc3cccc(NS(C)(=O)=O)c3)c2)c1 [Example 68] | 70.3 |  |  |
| CS(=O)(=O)Nc1cccc(NC(=O)c2cc(NCc3ccccc3)cs2)c1 [Example 155, 4-(benzylamino)-N-(3-(methylsulfonamido)phenyl)thiophene-2-carboxamide] | 72.3 | 1010 |  |
| CS(=O)(=O)Nc1cccc(NC(=O)c2cc(C(=O)Nc3ccc(-c4ccncc4)cc3)cs2)c1 [Example 128] | 64.6 | 146 |  |
| Cc1cccc(-c2csc(C(=O)Nc3cccc(NS(C)(=O)=O)c3)c2)c1 [Example 47] | 67.7 | 264 |  |
| CS(=O)(=O)Nc1cccc(NC(=O)c2cc(-c3ccccc3)c(Br)s2)c1 [Example 98, 5-bromo-N-(3-(methylsulfonamido)phenyl)-4-phenylthiophene-2-carboxamide] | 77.7 | 543 |  |
| CCn1ncc(C(=O)Nc2cccc(NS(C)(=O)=O)c2)c1C1CC1 [Example 18] | 58.6 | 92400 |  |
| Cn1nc(C(=O)Nc2cccc(NS(C)(=O)=O)c2)cc1C1CCCC1 [Example 29] | 81.3 | 1430 |  |
| CS(=O)(=O)Nc1cccc(NC(=O)c2csc(C3CC3)n2)c1 [Example 32] | 67.9 | 5770 |  |
| CS(=O)(=O)Nc1cccc(NC(=O)c2cc(-c3ccccc3)cs2)n1 [Example 156, N-(6-methanesulfonamidopyridin-2-yl)-4-phenylthiophene-2-carboxamide] | 63.7 |  | 1920 |
| CS(=O)(=O)Nc1cccc(NC(=O)c2ccc(-c3ccccc3)cc2)c1 [Example 38] | 38.6 | 345 |  |
| COc1ccc(NC(=O)c2csc(C(=O)Nc3cccc(NS(C)(=O)=O)c3)c2)cn1 [Example 106] | 72.3 | 67.9 |  |
| CS(=O)(=O)Nc1cccc(NC(=O)c2cc(C(=O)Nc3cccc(-c4cccnc4)c3)cs2)c1 [Example 133] | 70.3 | 171 |  |
| CS(=O)(=O)Nc1cccc(NC(=O)c2cc(C(=O)NC3CCc4ccccc43)cs2)c1 (centres unmarked) [Example 136] | 72.9 | 127 |  |
| CS(=O)(=O)Nc1cccc(NC(=O)c2csc(-c3ccc(F)cc3)n2)c1 [Example 24] | 62.5 | 1040 |  |
| CS(=O)(=O)Nc1cccc(NC(=O)c2ccc(OCc3ccccc3)cc2)c1 [Example 3] | 44.3 | 1230 |  |
| Cc1cc(NC(=O)c2csc(C(=O)Nc3cccc(NS(C)(=O)=O)c3)c2)ccc1Cl [Example 113] | 59.7 | 515 |  |
| Cn1c(=O)n(C)c2cc(NC(=O)c3csc(C(=O)Nc4cccc(NS(C)(=O)=O)c4)c3)ccc21 [Example 131] | 65.8 | 52.2 |  |
| CS(=O)(=O)Nc1cccc(NC(=O)c2cc(C(=O)Nc3ccc(OCCN4CCOCC4)cc3)cs2)c1 [Example 122] | 69.7 | 196 |  |
| CS(=O)(=O)Nc1cccc(NC(=O)c2cc(C(=O)Nc3ccc(CCO)cc3)cs2)c1 [Example 149] | 69.8 | 50.7 |  |

| SMILES | DHX9 Biochemical Max Inhibition [%] | IC50 [1] [nM] | IC50 [nM] |
| --- | --- | --- | --- |
| CC(C)Oc1ccccc1NC(=O)c1csc(C(=O)Nc2cccc(NS(C)(=O)=O)c2)c1 [Example 135] | 65.6 | 211 |  |
| CS(=O)(=O)Nc1cccc(NC(=O)c2nc(-c3ccccc3)cs2)c1 [Example 42] | 71.4 | 544 |  |
| Cc1c(NC(=O)c2csc(C(=O)Nc3cccc(NS(C)(=O)=O)c3)c2)c(=O)n(-c2ccccc2)n1C [Example 107] | 74.6 | 168 |  |
| CS(=O)(=O)Nc1cccc(NC(=O)c2cc(C(=O)Nc3cc(-c4ccccc4)[nH]n3)cs2)c1 [Example 148] | 58.2 | 5360 |  |
| Cc1cc(C)n(Cc2ccc(C(=O)Nc3cccc(NS(C)(=O)=O)c3)o2)n1 [Example 34] | 70.4 | 4850 |  |
| CS(=O)(=O)Nc1cccc(NC(=O)c2cc(C(=O)NCCN3CCCCC3)cs2)c1 [Example 150] | 68.6 | 102 |  |
| CC(NC(=O)c1csc(C(=O)Nc2cccc(NS(C)(=O)=O)c2)c1)c1ccccc1 (centres unmarked) [Example 110] | 68.9 | 81.9 |  |
| CS(=O)(=O)Nc1cccc(NC(=O)c2cc(C(=O)NCc3n[nH]c4ccccc34)cs2)c1 [Example 144] | 65.9 | 146 |  |
| Cc1nnc(-c2ccc(C(=O)Nc3cccc(NS(C)(=O)=O)c3)cc2)o1 [Example 11] | 47.5 | 5650 |  |
| CS(=O)(=O)Nc1cccc(NC(=O)c2cc(C(=O)NCCc3cccnc3)cs2)c1 [Example 103] | 71.7 | 126 |  |
| Cc1nc(-c2cc(C(=O)Nc3cccc(NS(C)(=O)=O)c3)co2)cs1 [Example 7] | 73.3 | 804 |  |
| CS(=O)(=O)Nc1cccc(NC(=O)c2cnn(-c3ncccn3)c2)c1 [Example 43] | 68.7 | 373 |  |
| COc1ccc(-c2cc(C(=O)Nc3cccc(NS(C)(=O)=O)c3)n[nH]2)cc1 [Example 78] | 61.5 | 698 |  |
| CS(=O)(=O)Nc1cccc(NC(=O)c2csc(NC3CC3)n2)c1 [Example 13] | 52.5 | 2390 |  |
| CS(=O)(=O)Nc1cccc(NC(=O)c2cc(C(=O)Nc3nc4ccccc4[nH]3)cs2)c1 [Example 146] | 71.2 | 38.7 |  |
| CC(C)Oc1cccc(NC(=O)c2csc(C(=O)Nc3cccc(NS(C)(=O)=O)c3)c2)c1 [Example 121] | 68.9 | 1070 |  |
| CS(=O)(=O)Nc1cccc(NC(=O)c2cccc(OCc3cccs3)c2)c1 [Example 28] | 76.4 | 4080 |  |
| CS(=O)(=O)Nc1cccc(NC(=O)c2ccc(-n3cccc3)cc2)c1 [Example 23] | 51.4 | 943 |  |
| Cc1nc(COc2ccc(C(=O)Nc3cccc(NS(C)(=O)=O)c3)cc2)cs1 [Example 22] | 71.7 | 1220 |  |
| CS(=O)(=O)Nc1cccc(NC(=O)c2cc(C(=O)NC3Cc4ccccc4C3)cs2)c1 [Example 112] | 68.9 | 101 |  |

| SMILES | DHX9 Biochemical Max Inhibition [%] | IC50 [1] [nM] | IC50 [nM] |
| --- | --- | --- | --- |
| Cc1ccc(Nc2cccc(C(=O)Nc3cccc(NS(C)(=O)=O)c3)c2)nn1 [Example 10] | 79.8 | 1540 |  |
| COc1cc(Cl)cc(NC(=O)c2csc(C(=O)Nc3cccc(NS(C)(=O)=O)c3)c2)c1 [Example 125] | 71.7 | 64.9 |  |
| CS(=O)(=O)Nc1cccc(NC(=O)c2ccc(-c3nnn[nH]3)cc2)c1 [Example 21] | 72.4 | 3850 |  |
| Cc1cc(C(=O)Nc2cccc(NS(C)(=O)=O)c2)nn1C1CCOCC1 [Example 17] | 50.7 | 2540 |  |
| CS(=O)(=O)Nc1cccc(NC(=O)c2cc(C(=O)Nc3ccc(OC(F)(F)F)cc3)cs2)c1 [Example 108] | 64.4 | 708 |  |
| CS(=O)(=O)Nc1cccc(NC(=O)c2cc(C(=O)NCc3ccc(CN4CCOCC4)cc3)cs2)c1 [Example 124] | 66.5 | 182 |  |
| Cc1ccc(NC(=O)c2csc(C(=O)Nc3cccc(NS(C)(=O)=O)c3)c2)cc1Cl [Example 104] | 67.3 | 504 |  |
| CS(=O)(=O)Nc1cccc(NC(=O)c2cc(Cc3ccccc3)cs2)c1 [Example 71] | 66.5 | 1860 |  |
| CS(=O)(=O)Nc1cccc(NC(=O)c2cc(-c3ccccc3)c(C(=O)O)s2)c1 [Example 101, 5-[(3-methanesulfonamidophenyl)carbamoyl]-3-phenylthiophene-2-carboxylic acid] | 79.1 | 54 |  |
| CS(=O)(=O)Nc1cccc(NC(=O)c2ccc(C(=O)NC3CC3)cc2)c1 [Example 14] | 70.4 | 5090 |  |
| COc1ccc(NC(=O)c2csc(C(=O)Nc3cccc(NS(C)(=O)=O)c3)c2)cc1 [Example 130] | 69.2 | 324 |  |
| CS(=O)(=O)Nc1cccc(NC(=O)c2cc(-c3ccccc3)[nH]n2)c1 [Example 36] | 56.3 | 1860 |  |
| CN(C)C(=O)c1ccc(NC(=O)c2csc(C(=O)Nc3cccc(NS(C)(=O)=O)c3)c2)cc1 [Example 114] | 73.5 | 71.4 |  |
| CS(=O)(=O)Nc1cccc(NC(=O)c2ccccc2N2CCCCC2)c1 [Example 9] | 48.3 | 3940 |  |
| CS(=O)(=O)Nc1cccc(NC(=O)c2cc(C(=O)Nc3ccccc3CC#N)cs2)c1 [Example 138] | 76.6 | 116 |  |
| CS(=O)(=O)Nc1cccc(NC(=O)c2cc(C(=O)NCc3ccc(N4CCOCC4)cc3)cs2)c1 [Example 116] | 74.5 | 70.8 |  |
| CS(=O)(=O)Nc1cccc(NC(=O)c2cc(C(=O)Nc3cccc(OC(F)(F)F)c3)cs2)c1 [Example 120] | 70.4 | 50.5 |  |
| Cc1ccc(-c2csc(C(=O)Nc3cccc(NS(C)(=O)=O)c3)c2)cc1 [Example 48] | 67.5 | 105 |  |
| CS(=O)(=O)Nc1cccc(NC(=O)c2cc(-c3ccc(O)cc3)[nH]n2)c1 [Example 64] | 78.1 | 589 |  |
| CS(=O)(=O)Nc1cccc(NC(=O)c2cc(C(=O)Nc3ccccc3Oc3ccccc3)cs2)c1 [Example 115] | 75 | 436 |  |

Source: US20250179013A1, “INHIBITORS OF RNA HELICASE DHX9 AND USES THEREOF” (ACCENT THERAPEUTICS, INC., priority 2022, published 2025)
